Assay results published in PubChem BioAssay (NCI).
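96-well plates; 48 h exposure; 5 concentrations. Endpoints by linear interpolation between flanking doses. Not reached: highest tested concentration assigned. TGI marks complete inhibition of growth.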

Legend:
Test in all cases: NCI anticancer screen, dose series, 48 h
[1] = test system: 786-0 renal
[2] = test system: A498 renal
[3] = test system: A549 NSCLC
[4] = test system: ACHN renal
[5] = test system: BT-549 breast
[6] = test system: CAKI-1 renal
[7] = test system: CCRF-CEM leukemia
[8] = test system: COLO 205 colon
[9] = test system: DU-145 prostate
[10] = test system: EKVX NSCLC
[11] = test system: HCC-2998 colon
[12] = test system: HCT-116 colon
[13] = test system: HCT-15 colon
[14] = test system: HOP-62 NSCLC
[15] = test system: HOP-92 NSCLC
[16] = test system: HS 578T breast
[17] = test system: HT29 colon
[18] = test system: IGROV1 ovarian
[19] = test system: K-562 leukemia
[20] = test system: KM12 colon
[21] = test system: LOX IMVI melanoma
[22] = test system: M14 melanoma
[23] = test system: MALME-3M melanoma
[24] = test system: MCF7 breast
[25] = test system: MDA-MB-231 breast
[26] = test system: MDA-MB-435
[27] = test system: MDA-N
[28] = test system: MOLT-4 leukemia
[29] = test system: NCI-H226 lung
[30] = test system: NCI-H23 lung
[31] = test system: NCI-H460 lung
[32] = test system: NCI-H522 lung
[33] = test system: NCI/ADR-RES ovarian
[34] = test system: OVCAR-3 ovarian
[35] = test system: OVCAR-4 ovarian
[36] = test system: OVCAR-5 ovarian
[37] = test system: OVCAR-8 ovarian
[38] = test system: PC-3 prostate
[39] = test system: RPMI-8226 leukemia
[40] = test system: RXF 393 renal
[41] = test system: SF-268 CNS
[42] = test system: SF-295 CNS
[43] = test system: SF-539 CNS
[44] = test system: SK-MEL-2 melanoma
[45] = test system: SK-MEL-28 melanoma
[46] = test system: SK-MEL-5 melanoma
[47] = test system: SK-OV-3 ovarian
[48] = test system: SN12C renal
[49] = test system: SNB-19 CNS
[50] = test system: SNB-75 CNS
[51] = test system: SW-620 colon
[52] = test system: T-47D breast
[53] = test system: TK-10 renal
[54] = test system: U251 CNS
[55] = test system: UACC-257 melanoma
[56] = test system: UACC-62 melanoma
[57] = test system: UO-31 renal
[58] = test system: HL-60(TB) leukemia
[59] = test system: SR leukemia

With CC(C)(C)OC(=O)NCCCCC(N)NC(=O)c1ccccc1 (stereo unspecified) the TGI [1] was over 100 µM, the TGI [2] was over 100 µM and the TGI [3] was over 100 µM. The TGI [4] was over 100 µM, the TGI [5] was over 100 µM and the TGI [6] was over 100 µM. It also gave a TGI [7] of over 100 µM, a TGI [8] of over 100 µM and a TGI [9] of over 100 µM. The TGI [10] was over 100 µM, the TGI [11] was over 100 µM and the TGI [12] was over 100 µM. It also gave a TGI [13] of over 100 µM, a TGI [14] of over 100 µM and a TGI [15] of over 100 µM. The TGI [16] was over 100 µM, the TGI [17] was over 100 µM and the TGI [18] was over 100 µM. The TGI [19] was over 100 µM, the TGI [20] was over 100 µM and the TGI [21] was over 100 µM. For the same compound, the TGI [22] was over 100 µM, the TGI [23] was over 100 µM and the TGI [24] was over 100 µM. It also gave a TGI [25] of over 100 µM, a TGI [26] of over 100 µM and a TGI [27] of over 100 µM. It also gave a TGI [28] of over 100 µM, a TGI [29] of over 100 µM and a TGI [30] of over 100 µM. For the same compound, the TGI [31] was over 100 µM, the TGI [32] was over 100 µM and the TGI [33] was over 100 µM. It also gave a TGI [34] of over 100 µM, a TGI [35] of over 100 µM and a TGI [36] of over 100 µM. The TGI [37] was over 100 µM, the TGI [38] was over 100 µM and the TGI [39] was over 100 µM. The TGI [40] was over 100 µM, the TGI [41] was over 100 µM and the TGI [42] was over 100 µM. The TGI [43] was over 100 µM, the TGI [44] was over 100 µM and the TGI [45] was over 100 µM. The TGI [46] was over 100 µM, the TGI [47] was over 100 µM and the TGI [48] was over 100 µM. The TGI [49] was over 100 µM, the TGI [50] was over 100 µM and the TGI [51] was over 100 µM. It also gave a TGI [52] of over 100 µM, a TGI [53] of over 100 µM and a TGI [54] of over 100 µM. It also gave a TGI [55] of over 100 µM, a TGI [56] of over 100 µM and a TGI [57] of over 100 µM.

In the case of O=c1[nH]c2nc3ccccc3c(=O)n2/c1=C/c1ccco1, the TGI [1] is reported as over 100 µM, the TGI [3] is reported as over 100 µM and the TGI [4] is reported as over 100 µM. The TGI [5] was over 100 µM, the TGI [6] was over 100 µM and the TGI [7] was over 100 µM. The TGI [8] was over 100 µM, the TGI [9] was over 100 µM and the TGI [10] was over 100 µM. It also gave a TGI [11] of over 100 µM, a TGI [12] of over 100 µM and a TGI [13] of over 100 µM. The TGI [58] was over 100 µM, the TGI [14] was over 100 µM and the TGI [15] was over 100 µM. It also gave a TGI [16] of over 100 µM, a TGI [17] of over 100 µM and a TGI [18] of over 100 µM. The TGI [19] was over 100 µM, the TGI [20] was over 100 µM and the TGI [21] was over 100 µM. The TGI [22] was over 100 µM, the TGI [23] was over 100 µM and the TGI [24] was over 100 µM. It also gave a TGI [25] of over 100 µM, a TGI [26] of over 100 µM and a TGI [27] of over 100 µM. For the same compound, the TGI [28] was over 100 µM, the TGI [29] was over 100 µM and the TGI [30] was over 100 µM. It also gave a TGI [32] of over 100 µM, a TGI [33] of over 100 µM and a TGI [34] of over 100 µM. For the same compound, the TGI [35] was over 100 µM, the TGI [36] was over 100 µM and the TGI [37] was over 100 µM. For the same compound, the TGI [38] was over 100 µM, the TGI [39] was over 100 µM and the TGI [41] was over 100 µM. The TGI [42] was over 100 µM, the TGI [43] was over 100 µM and the TGI [44] was over 100 µM. It also gave a TGI [45] of over 100 µM, a TGI [46] of over 100 µM and a TGI [47] of over 100 µM. The TGI [48] was over 100 µM, the TGI [49] was over 100 µM and the TGI [50] was over 100 µM. It also gave a TGI [59] of over 100 µM, a TGI [51] of over 100 µM and a TGI [52] of over 100 µM. For the same compound, the TGI [53] was over 100 µM, the TGI [54] was over 100 µM and the TGI [55] was over 100 µM. The TGI [56] was over 100 µM and the TGI [57] was over 100 µM.

With O=c1[nH]c(Nc2nc3ccccc3[nH]2)nc(O)c1Cc1ccccc1 the TGI [1] was over 100 µM, the TGI [2] was over 100 µM and the TGI [3] was over 100 µM. The TGI [4] was over 100 µM, the TGI [5] was over 100 µM and the TGI [6] was over 100 µM. The TGI [7] was over 100 µM, the TGI [8] was over 100 µM and the TGI [9] was over 100 µM. It also gave a TGI [10] of over 100 µM, a TGI [12] of over 100 µM and a TGI [13] of over 100 µM. For the same compound, the TGI [58] was over 100 µM, the TGI [15] was 63 µM and the TGI [16] was over 100 µM. The TGI [17] was over 100 µM, the TGI [18] was over 100 µM and the TGI [19] was over 100 µM. For the same compound, the TGI [20] was over 100 µM, the TGI [22] was over 100 µM and the TGI [23] was over 100 µM. For the same compound, the TGI [25] was over 100 µM, the TGI [26] was over 100 µM and the TGI [27] was over 100 µM. For the same compound, the TGI [28] was over 100 µM, the TGI [29] was over 100 µM and the TGI [30] was over 100 µM. The TGI [31] was over 100 µM, the TGI [32] was over 100 µM and the TGI [33] was over 100 µM. For the same compound, the TGI [35] was over 100 µM, the TGI [37] was over 100 µM and the TGI [38] was over 100 µM. It also gave a TGI [39] of over 100 µM, a TGI [41] of over 100 µM and a TGI [43] of over 100 µM. For the same compound, the TGI [44] was over 100 µM, the TGI [45] was over 100 µM and the TGI [46] was over 100 µM. For the same compound, the TGI [48] was over 100 µM, the TGI [49] was over 100 µM and the TGI [50] was 86.4 µM. The TGI [59] was over 100 µM, the TGI [51] was over 100 µM and the TGI [52] was over 100 µM. For the same compound, the TGI [53] was over 100 µM, the TGI [54] was over 100 µM and the TGI [55] was over 100 µM. The TGI [56] was over 100 µM and the TGI [57] was over 100 µM.

CCOC(=O)Cn1nnc2ccc(Nc3nc4ccccc4nc3-c3ccccc3)cc21 showed a TGI [1] of over 100 µM, a TGI [2] of over 100 µM and a TGI [3] of over 100 µM. For the same compound, the TGI [4] was over 100 µM, the TGI [5] was over 100 µM and the TGI [6] was over 100 µM. For the same compound, the TGI [7] was over 100 µM, the TGI [8] was over 100 µM and the TGI [9] was 31.8 µM. For the same compound, the TGI [10] was over 100 µM, the TGI [11] was 66.4 µM and the TGI [12] was over 100 µM. It also gave a TGI [13] of over 100 µM, a TGI [58] of over 100 µM and a TGI [14] of over 100 µM. For the same compound, the TGI [15] was over 100 µM, the TGI [16] was over 100 µM and the TGI [17] was over 100 µM. For the same compound, the TGI [18] was over 100 µM, the TGI [19] was over 100 µM and the TGI [20] was over 100 µM. The TGI [21] was over 100 µM, the TGI [22] was over 100 µM and the TGI [23] was over 100 µM. It also gave a TGI [24] of over 100 µM, a TGI [26] of over 100 µM and a TGI [27] of over 100 µM. For the same compound, the TGI [28] was over 100 µM, the TGI [29] was over 100 µM and the TGI [30] was over 100 µM. The TGI [31] was over 100 µM, the TGI [32] was over 100 µM and the TGI [33] was over 100 µM. The TGI [34] was over 100 µM, the TGI [35] was over 100 µM and the TGI [36] was over 100 µM. It also gave a TGI [37] of over 100 µM, a TGI [38] of over 100 µM and a TGI [39] of over 100 µM. The TGI [40] was over 100 µM, the TGI [41] was over 100 µM and the TGI [42] was over 100 µM. For the same compound, the TGI [43] was over 100 µM, the TGI [44] was over 100 µM and the TGI [45] was over 100 µM. For the same compound, the TGI [46] was over 100 µM, the TGI [47] was over 100 µM and the TGI [48] was over 100 µM. It also gave a TGI [49] of over 100 µM, a TGI [50] of 99.1 µM and a TGI [59] of over 100 µM. For the same compound, the TGI [51] was over 100 µM, the TGI [52] was over 100 µM and the TGI [53] was 62.5 µM. For the same compound, the TGI [54] was over 100 µM, the TGI [55] was over 100 µM and the TGI [56] was over 100 µM. The TGI [57] was 14.5 µM.
